The source of these data is publication PMC9126595, “Identification of 3-(piperazinylmethyl)benzofuran derivatives as novel type II CDK2 inhibitors: design, synthesis, biological evaluation, and in silico insights” (Journal of Enzyme Inhibition and Medicinal Chemistry, 2022).

Assay [1] has as its target T1, CDK2 (Homo sapiens, UniProt P24941).
T1 construct: purchased Promega V2971
Nature of the assay: CDK2 kinase inhibitory assay (Promega CDK2 Kinase Enzyme System). In kind it is biochemical. The settings on record: mean ± SD of three separate experiments. From the text:
The experimental details for the performed biological assays; Sulforhodamine B (SRB) cytotoxicity, CDK2 kinase, Annexin V-FITC apoptosis, and cell cycle assays[86–89] were mentioned in the Supporting Information. […]
4. CDK Kinase Inhibitory Activity
CDK2 Kinase Enzyme System (catalog No. V2971) (Promega, Milan, Italy), according to the
manufacturer’s instructions. […]

Assay [2] concerns Panc-1 pancreatic cancer cell line. As to the kind of experiment: SRB anti-proliferative assay, Panc-1. In kind it is cell-based, human. The settings on record: Homo sapiens, read-out: IC50 Panc-1. From the text: (§1) The experimental details for the performed biological assays; Sulforhodamine B (SRB) cytotoxicity, CDK2 kinase, Annexin V-FITC apoptosis, and cell cycle assays[86–89] were mentioned in the Supporting Information.
(§2) 1. Anti-proliferative activity assay
(§3) The examined human pancreatic cancer (Panc-1), breast cancer (MCF-7), and lung carcinoma (A549) cell lines have been obtained from American Type Culture Collection (ATCC). The cells were maintained in Dulbecco's modified Eagle's medium (DMEM) supplemented with 10% heat inactivated fetal calf serum (GIBCO), penicillin (100 U/ml) and streptomycin (100 µg/ml) at 37 °C in humidified atmosphere containing 5% CO2. […]
(§4) a 25 cm2 flask in 5 ml of culture medium. The anti-proliferative activity of the tested 3-(piperazinylmethyl)benzofurans (9, 11, 13, 15 and 17) was measured in vitro using the Sulfo-Rhodamine-B stain (SRB) assay. Briefly, cells were plated out in 96-well microtiter plate (0.5X10^4 cells/well) and incubated for 24 h before treatment with the tested hybrids to allow cells to attach to the bottom of the well of the plate. Tested benzofurans were dissolved in DMSO at 1 mg/ml immediately before use and diluted to the appropriate volume just before addition to the cell culture. Different concentrations of tested benzofurans, and Staurosporine were added to the cells (three wells were prepared for each individual dose). Cells were incubated with the hybrids for 48 […]
(§5) After 48 h cells were fixed, washed, and stained for 30 min with 0.4% (w/v) SRB dissolved in 1% acetic acid. Unbound dye was removed by four washes with 1% acetic acid, and attached stain was recovered with Tris-EDTA buffer. Color intensity was measured in an ELISA reader. The relation between percent of surviving fraction and log drug concentration is plotted to get the survival curve for each cell line. […]

For assay [3], the system named is MCF-7 breast cancer cell line. Nature of the assay: SRB anti-proliferative assay, MCF-7. In kind it is cell-based, human. The settings on record: Homo sapiens, read-out: IC50 MCF-7.
Source text: as §1, §2, §3, §4, §5

Assay [4] has as its system Panc-1 cells. Nature of the assay: Cell cycle analysis (PI flow cytometry). In kind it is cell-based, human. The settings on record: Panc-1, IC50 dose, 24 h; for proportion of cells in sub-G1 phase: control 2.36%; for proportion of cells in G2/M phase: control 12.17%; for cells population in S phase: control 41.90%; for cells population in G0/G1 phase: control 43.57%. The procedure:
as §3
a 25 cm2 flask in 5 ml of culture medium. […]
The concentration required for […]
concentration), and then cells were washed twice with ice-cold phosphate buffered saline (PBS).
Subsequently, the treated cells were collected by centrifugation, fixed in ice-cold 70% (v/v) ethanol, washed with PBS, re-suspended with 100 μg/mL RNase, stained with 40 μg/mL PI, and analyzed by flow cytometry using FACS Calibur (Becton Dickinson, BD, Franklin Lakes, NJ, USA). The cell cycle distributions were calculated using CellQuest software 5.1 (Becton

In assay [5] the test system is non-tumorigenic human lung fibroblast MRC-5 cell line. As to the kind of experiment: Normal cell cytotoxicity, MRC-5. The class given is cell-based. The procedure:
To test the safety of the newly synthesised compounds and their selectivity towards cancer cells, their cytotoxic activity was tested on non-tumorigenic human lung fibroblast MRC-5 cell line.

Assay [6] concerns A-549 lung carcinoma cell line. Nature of the assay: SRB anti-proliferative assay, A-549. In kind it is cell-based, human. The settings on record: Homo sapiens, read-out: IC50 A-549.
Source text: as §1, §2, §3, §4, §5

The test system of assay [7] is Panc-1 cells. As to the kind of experiment: Annexin V-FITC/PI apoptosis assay. The class given is cell-based, human. The settings on record: Panc-1, IC50 concentration; for total apoptotic cells percentage: control 2.41%; for early apoptotic phase percentage: lower right quadrant, control 0.59%; for late apoptotic phase percentage: upper right quadrant, control 0.32%. The procedure:
Anx V flowcytometry assay is featured as a helpful tool to determine whether cells death is due to the physiological apoptosis or to the non-specific necrosis.
3. Annexin V-FITC Apoptosis Assay
Phosphatidylserine externalization was assayed using Annexin V-FITC/PI apoptosis detection kit (BD Biosciences, USA) according to the manufacturer’s instructions. Pancreatic cancer Panc-1 […]
concentration. Briefly, cells were then harvested via trypsinization, and rinsed twice in PBS followed by binding buffer. Moreover, cells were re-suspended in 100 μL of binding buffer with the addition of 1 μL of FITC-Annexin V followed by an incubation period of 30 min at 4 °C. Cells were then rinsed in binding buffer and resuspended in 150 μL of binding buffer with the addition

Where two headings read alike, the source gives them in different places.

Take `O=C(NNC(=S)Nc1cccc(C(F)(F)F)c1)c1oc2ccccc2c1CN1CCN(c2ccccc2)CC1` [Compound 9h]: the IC50 in assay [1] turned out to be 40.9 ± 2.1 nM. In addition, in assay [2] (PANC-1, SRB, 48 h, mean of 3 separate experiments), the IC50 was 940 ± 100 nM. In assay [3] (MCF7, SRB, 48 h, mean of 3 separate experiments), the IC50 amounted to 2920 ± 170 nM. In assay [4], the “proportion of cells in sub-G1 phase” value worked out at 30.32%, the “proportion of cells in G2/M phase” value was determined as 32.46%, the “cells population in S phase” value was determined as 16.66% and the “cells population in G0/G1 phase” value came out at 20.56%. Besides, the IC50 in assay [5] (MRC5, normal lung fibroblasts, mean of three separate experiments, read-out: IC50 MRC-5) is 27700 ± 1800 nM. For the same molecule, the half-maximal inhibitory concentration (IC50) in assay [6] (A549, SRB, 48 h, mean of 3 separate experiments) amounted to 1710 ± 120 nM. For the same molecule, in assay [7], the “total apoptotic cells percentage” value came out at 43.51%, the “early apoptotic phase percentage” value is on record as 5.41% and the “late apoptotic phase percentage” value stood at 20.99%.
On to `O=C(NNC(=O)c1oc2ccccc2c1CN1CCN(c2ccccc2)CC1)Nc1ccc(Cl)c(C(F)(F)F)c1` [Compound 11d], for which the half-inhibitory concentration (IC50) in assay [2] (PANC-1, 48 h) was 2220 ± 130 nM. Also, the IC50 in assay [3] (MCF7, 48 h) was 5570 ± 470 nM. Also, in assay [4], the “proportion of cells in sub-G1 phase” value was found to be 23.04%, the “proportion of cells in G2/M phase” value is 27.52%, the “cells population in S phase” value was 22.61% and the “cells population in G0/G1 phase” value turned out to be 26.83%. Also, in assay [5] (MRC5, read-out: IC50 MRC-5), the IC50 was found to be 74000 ± 5000 nM. Further, the IC50 in assay [6] (A549, 48 h) is 2990 ± 210 nM. Also, in assay [7], the “total apoptotic cells percentage” value came to 29.93%, the “early apoptotic phase percentage” value turned out to be 2.64% and the “late apoptotic phase percentage” value was 15.87%.
